Like-named read-outs stand apart in the source and are kept apart here.
Key:
[1] = molecular target: T1, human full-length glucocorticoid receptor (Homo sapiens, UniProt P04150); test: Glucocorticoid Receptor Binding Assay (II), fluorescence polarization competitor kit (Fluormone GS1); settings: cell lysate with recombinant human full-length GR, 1 nM Fluormone GS1, FP
T1 construct: a cell lysate containing recombinantly expressed human full-length glucocorticoid receptor; purchased PanVera Co., Madison, Wis; P2816
T1 sequence (P04150 1-777): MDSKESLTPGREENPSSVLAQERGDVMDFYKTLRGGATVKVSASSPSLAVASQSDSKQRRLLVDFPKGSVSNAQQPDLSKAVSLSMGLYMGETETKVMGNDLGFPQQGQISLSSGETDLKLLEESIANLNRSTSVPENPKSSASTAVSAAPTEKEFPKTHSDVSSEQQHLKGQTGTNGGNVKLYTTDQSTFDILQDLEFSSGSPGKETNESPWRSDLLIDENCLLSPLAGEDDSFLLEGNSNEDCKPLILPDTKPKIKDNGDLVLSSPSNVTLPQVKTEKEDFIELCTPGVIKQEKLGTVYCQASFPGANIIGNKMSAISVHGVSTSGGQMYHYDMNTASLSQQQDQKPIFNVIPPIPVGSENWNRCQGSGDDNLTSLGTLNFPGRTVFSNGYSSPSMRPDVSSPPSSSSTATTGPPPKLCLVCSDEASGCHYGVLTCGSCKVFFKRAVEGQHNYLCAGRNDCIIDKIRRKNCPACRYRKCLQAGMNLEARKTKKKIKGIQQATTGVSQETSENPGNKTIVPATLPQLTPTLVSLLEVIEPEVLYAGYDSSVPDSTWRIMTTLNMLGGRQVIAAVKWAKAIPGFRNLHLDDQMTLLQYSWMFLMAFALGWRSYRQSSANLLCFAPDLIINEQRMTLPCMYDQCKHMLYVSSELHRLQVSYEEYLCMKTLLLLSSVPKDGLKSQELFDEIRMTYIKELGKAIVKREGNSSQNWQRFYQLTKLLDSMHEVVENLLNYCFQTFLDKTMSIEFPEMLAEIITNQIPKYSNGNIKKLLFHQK
Method: In order to measure the binding of compounds on the glucocorticoid receptor a commercially available kit was used (Glucocorticoid receptor competitor assay kit, PanVera Co., Madison, Wis., P2816). Briefly, a cell lysate containing recombinantly expressed human full-length glucocorticoid receptor was mixed with a fluorescently labeled glucocorticoid (1 nM Fluormone GS1) in the presence or absence of test compound. After one hour at room temperature, the fluorescence polarization (FP) of the samples were measured.

[2] = tested on: AP-1 induced transcriptional activity; test: Cellular Transrepressional Assay (AP-1 luciferase reporter in A549 cells, PMA-activated); type: cell-based; settings: A549 cells with 7x AP-1 luciferase reporter, 10 ng/ml PMA, read-out: AP-1 (EC50, nM) (Cellular Transrepression Assay)
Procedure, shortened: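 Stable A549 AP-1 (7× sites) luciferase reporter line stimulated with 10 ng/ml PMA plus test molecules (0.1 nM to 40 μM) for 7 h. Luminescence read after 10 min with luciferase reagent; EC50 from % decrease of PMA-induced signal.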

[3] = molecular target: T2, human glucocorticoid receptor (Homo sapiens, UniProt P04150); test: Glucocorticoid Receptor Binding Assay (I), fluorescence polarization competitor kit (Fluormone GS Red); settings: purified human recombinant full-length GR 2 nM, 1 nM Fluormone GS Red, FP; read-out: GR (Ki, nM) (GR Binding Assay (I))
T2 construct: purified human recombinant full-length glucocorticoid receptor (2 nM); purchased Invitrogen Part #2893
T2 sequence (P04150 1-777): T1 sequence (P04150 1-777)
Method: Briefly, purified human recombinant full-length glucocorticoid receptor (2 nM) was mixed with fluorescently labeled glucocorticoid (1 nM Fluormone GS Red) in the presence or absence of test compound. After two hour incubation at room temperature in the dark, the fluorescence polarization (FP) of the samples was measured. […] Test compounds were analyzed in the concentration range from 8.5E-05 μM to 5 μM.

Row | SMILES | Ki [1] [nM] | EC50 ([2]; Homo sapiens, A549, 7 h) [nM] | EC50 ([2]; 7 hours) [nM] | Ki [3] [nM]
1 | CC(C)CC1(c2ccc3c(cnn3-c3ccc(F)cc3)c2)CC1C(=O)Nc1nccs1 (mixture of isomers) [Example 100, Cis and trans-2-(1-(4-fluorophenyl)-1H-indazol-5-yl)-2-isobutyl-N-(thiazol-2-yl)cyclopropanecarboxamide] | 102 | 290 |  | 
2 | CC(C(=O)Nc1nncs1)C(c1ccccc1)c1ccc2[nH]ncc2c1 (single isomer, unassigned) [151-diast A, 3-(1H-Indazol-5-yl)-2-methyl-3-phenyl-N-(1,3,4-thiadiazol-2-yl)propanamide] | 1.6 |  | 9 | 
3 | CC(C(=O)Nc1nncs1)C(c1ccccc1)c1ccc2[nH]ncc2c1 (single isomer, unassigned) [151-diast B, 3-(1H-Indazol-5-yl)-2-methyl-3-phenyl-N-(1,3,4-thiadiazol-2-yl)propanamide] | 283 |  | 1740 | 
4 | O=C(Nc1nncs1)C(c1ccccc1)C(c1ccccc1)c1ccc2[nH]ncc2c1 (single isomer, unassigned) [152-diast A, 3-(1H-Indazol-5-yl)-2,3-diphenyl-N-(1,3,4-thiadiazol-2-yl)propanamide] | 9.8 | 2500 |  | 
5 | O=C(Nc1nncs1)C(c1ccccc1)C(c1ccccc1)c1ccc2[nH]ncc2c1 (single isomer, unassigned) [152-diast B, 3-(1H-Indazol-5-yl)-2,3-diphenyl-N-(1,3,4-thiadiazol-2-yl)propanamide] | 1150 |  | 5000 | 
6 | CC(C)(C(=O)NC1CCCC1O)C(Cc1ccccc1)c1ccc2c(cnn2-c2ccc(F)cc2)c1 (single isomer, unassigned) [Example 124-isomerD] | 0.64 |  | 40 | 
7 | CC(C)(C(=O)Nc1nncs1)C(c1ccccc1)c1ccc2c(cnn2-c2ccc(Br)cc2)c1 (centres unmarked) [Example 91, 3-(1-(4-bromophenyl)-1H-indazol-5-yl)-2,2-dimethyl-3-phenyl-N-(1,3,4-thiadiazol-2-yl)propanamide] |  | 956 |  | 29
8 | CC(C)(C(=O)Nc1nncs1)C(c1ccccc1)c1ccc2c(cnn2-c2ccc(F)cc2C(F)(F)F)c1 (centres unmarked) [Example 92, 3-(1-(4-fluoro-2-(trifluoromethyl)phenyl)-1H-indazol-5-yl)-2,2-dimethyl-3-phenyl-N-(1,3,4-thiadiazol-2-yl)proponamide] |  | > 10000 |  | 110
9 | CC(C)(C(=O)Nc1nncs1)C(c1ccccc1)c1ccc2c(cnn2-c2ccc(Cl)cc2)c1 (centres unmarked) [Example 93, 3-(1-(4-chlorophenyl)-1H-indazol-5-yl)-2,2-dimethyl-3-phenyl-N-(1,3,4-thiadiazol-2-yl)propanamide] |  | 32 |  | 18
10 | O=C(Nc1nccs1)C1CC1(c1ccccc1)c1ccc2c(cnn2-c2ccc(F)cc2)c1 (stereo not drawn) [Example 98, Trans-2-(1-(4-fluorophenyl)-1H-indazol-5-yl)-2-phenyl-N-(thiazol-2-yl)cyclopropanecarboxamide] |  |  | 34 | 15
11 | CC(C)(C(=O)Nc1nccs1)C(c1ccccc1)c1ccc2[nH]cc(C=O)c2c1 (centres unmarked) [Example 109, 3-(3-Formyl-1H-indol-5-yl)-2,2-dimethyl-3-phenyl-N-(thiazol-2-yl)propanamide] |  | > 10000 |  | 59
12 | CC(C)(C(=O)Nc1nccs1)C(c1ccccc1)c1ccc2c(-c3ccccc3)n[nH]c2c1 (centres unmarked) [Example 112, 2,2-Dimethyl-3-phenyl-3-(3-phenyl-1H-indazol-6-yl)-N-(thiazol-2-yl)propanamide] |  | 2410 |  | 13
13 | CC(C)(C(=O)Nc1nncs1)C(c1ccccc1)c1ccc2[nH]c(-c3ccncc3)cc2c1 (centres unmarked) [Example 116, 2,2-dimethyl-3-phenyl-3-(2-(pyridin-4-yl)-1H-indol-5-yl)-N-(1,3,4-thiadiazol-2-yl)propanamide] |  | 3260 |  | 43
14 | CC(C)(C(=O)Nc1nccs1)C(c1ccccc1)c1ccc2[nH]c(-c3nccs3)cc2c1 (centres unmarked) [Example 117, 2,2-dimethyl-3-phenyl-N-(thiazol-2-yl)-3-(2-(thiazol-2-yl)-1H-indol-5-yl)propanamide] |  | 3610 |  | 57
15 | CC(C)(C(=O)Nc1nncs1)[C@@H](c1ccccc1)c1ccc2c(cnn2-c2ccc(F)cc2C(=O)O)c1 [Example 157, 2-(5-((S)-3-(1,3,4-Thiadiazol-2-ylamino)-2,2-dimethyl-3-oxo-1-phenylpropyl)-1H-indazol-1-yl)-5-fluorobenzoic acid] | 634 |  |  | 
16 | CC(C)(C(=O)Nc1nccs1)C(c1ccccc1)c1cnc2c(cnn2-c2ccccc2)c1 (centres unmarked) [Example 162, 2,2-dimethyl-3-phenyl-3-(1-phenyl-1H-pyrazolo[3,4-b]pyridin-5-yl)-N-(thiazol-2-yl)propanamide] |  | 3560 |  | 3.6

Next, values leading:

Row | Ki [1] [nM] | EC50 ([2]; Homo sapiens, A549, 7 h) [nM] | EC50 ([2]; 7 hours) [nM] | Ki [3] [nM] | SMILES
17 | 7.5 |  | > 10000 |  | CC(C)(C(=O)NC1CCCC1O)C(Cc1ccccc1)c1ccc2c(cnn2-c2ccc(F)cc2)c1 (single isomer, unassigned) [Example 124-isomerA]
18 | 2.3 |  | > 10000 |  | CC(C)(C(=O)NC1CCCC1O)C(Cc1ccccc1)c1ccc2c(cnn2-c2ccc(F)cc2)c1 (single isomer, unassigned) [Example 124-isomerB]
19 | 2.1 |  | 1250 |  | CC(C)(C(=O)NC1CCCC1O)C(Cc1ccccc1)c1ccc2c(cnn2-c2ccc(F)cc2)c1 (single isomer, unassigned) [Example 124-isomerC]
20 |  | > 10000 |  | 248 | O=C(Nc1nccs1)C1CC1c1ccc2c(cnn2-c2ccc(F)cc2)c1 (centres unmarked) [Example 103, 2-(1-(4-Fluorophenyl)-1H-indazol-5-yl)-N-(thiazol-2-yl)cyclopropanecarboxamide]
21 |  | 193 |  | 7.8 | CC(C)(C(=O)Nc1nccs1)C(c1ccccc1)c1ccc2[nH]ccc2c1 (centres unmarked) [Example 107, 3-(1H-Indol-5-yl)-2,2-dimethyl-3-phenyl-N-(thiazol-2-yl)propanamide]
22 |  | 1200 |  | 6.6 | CC(C)(C(=O)Nc1nccs1)C(c1ccccc1)c1ccc2[nH]cc(C#N)c2c1 (centres unmarked) [Example 108, 3-(3-Cyano-1H-indol-5-yl)-2,2-dimethyl-3-phenyl-N-(thiazol-2-yl)propanamide]
23 |  | 220 |  | 13 | CC(C)(C(=O)Nc1nccs1)C(c1ccccc1)c1ccc2c(ccn2-c2ccc(F)cc2)c1 (centres unmarked) [Example 110, 3-(1-(4-Fluorophenyl)-1H-indol-5-yl)-2,2-dimethyl-3-phenyl-N-(thiazol-2-yl)propanamide]
24 |  | 3640 |  | 26 | CC(C)(C(=O)Nc1nccs1)C(c1ccccc1)c1ccc2[nH]c(-c3ccncc3)cc2c1 (centres unmarked) [Example 115, 2,2-dimethyl-3-phenyl-3-(2-(pyridin-4-yl)-1H-indol-5-yl)-N-(thiazol-2-yl)propanamide]
25 |  | 2930 |  | 95 | CC(C)(C(=O)Nc1nncs1)C(c1ccccc1)c1ccc2[nH]c(-c3nccs3)cc2c1 (centres unmarked) [Example 118, 2,2-dimethyl-3-phenyl-N-(1,3,4-thiadiazol-2-yl)-3-(2-(thiazol-2-yl)-1H-indol-5-yl)propanamide]
26 |  | 2130 |  | 146 | Cc1ccc(-c2cc3cc(C(c4ccccc4)C(C)(C)C(=O)Nc4nccs4)ccc3[nH]2)cc1 (centres unmarked) [Example 119, 2,2-dimethyl-3-phenyl-N-(thiazol-2-yl)-3-(2-p-tolyl-1H-indol-5-yl)propanamide]
27 |  | 74 |  | 5.8 | CC(C)(C(=O)Nc1nncs1)C(C)(C)c1ccc2c(cnn2-c2ccc(F)cc2)c1 [Example 120, 3-(1-(4-fluorophenyl)-1H-indazol-5-yl)-2,2,3-trimethyl-N-(1,3,4-thiadiazol-2-yl)butanamide]

Reference: patent US8067447B2, “Modulators of glucocorticoid receptor, AP-1, and/or NF-κB activity and use thereof” (Bristol-Myers Squibb Company, priority 2006, dated 2011)
